How the values were obtained:
H14 cells = test: In vitro assay of uptake of [14C]-alanine; format: cell-based, hamster; settings: Mesocricetus auratus; 10 μM
Protocol: Baby hamster kidney cells (BHK) transfected with the cDNA of human IBAT (H14 cells) are seeded at 60,000 cells/well in 96 well Top-Count tissue culture plates for assays run within in 24 hours of seeding, 30,000 cells/well for assays run within 48 hours, and 10,000 cells/well for assays run within 72 hours.
On the day of assay, the cell monolayer is gently washed once with 100 μl assay buffer (Dulbecco's Modified Eagle's medium with 4.5 g/L glucose+0.2% (w/v) fatty acid free bovine serum albumin-(FAF)BSA). To each well 50 μl of a two-fold concentrate of test compound in assay buffer is added along with 50 μl of 6 μM [^14C]-taurocholate in assay buffer (final concentration of 3 μM [^14C]-taurocholate). The cell culture plates are incubated 2 hours at 37° C. prior to gently washing each well twice with 100 μl 4° C. Dulbecco's phosphate-buffered saline (PBS) containing 0.2% (w/v) (FAF)BSA. The wells are then gently washed once with 100 μl 4° C. PBS without (FAF)BSA. To each 200 μl of liquid scintillation counting fluid is added, the plates are heat sealed and shaken for 30 minutes at room temperature prior to measuring the amount of radioactivity in each well on a Packard Top-Count instrument.
In Vitro Assay of Compounds that Inhibit Uptake of [^14C3-Alanine
The alanine uptake assay is performed in an identical fashion to the taurocholate assay, with the exception that labeled alanine is substituted for the labeled taurocholate.

[1] = system: Rabbit Ileal brush border membranes; test: [3H]taurocholate uptake in rabbit brush border membrane vesicles (BBMV); format: biochemical; settings: read-out: TC-uptake (BBMV) IC(50)
Protocol: [^3H]Taurocholate Uptake in Rabbit Brush Border Membrane Vesicles (BBMV)
Rabbit Ileal brush border membranes were prepared from frozen iheal mucosa by the calcium precipitation method describe by Malathi et al. (Reference: (1979) Biochimica Biophysica Acta, 554, 259). The method for measuring taurocholate was essentially as described by Kramer et al. (Reference: (1992) Biochimica Biophysica Acta, 1111, 93) except the assay volume was 200 μl instead of 100 μl.

[2] = Efficacy in cholesterol-fed hamsters: body, liver and fecal weight; format: in vivo, hamster; settings: 0.2% Cpd. No. 25, mean (SEM)
Serum Cholesterol = test: Determination of serum cholesterol (SER.CHOL, HDL-CHOL, TGI, VLDL+LDL), cholesterol-fed hamsters; format: in vivo, hamster; settings: 0.2% Cpd. No. 25, mean (SEM)
Protocol: Determination of Serum Cholesterol (SER.CHOL, HDL-CHOL, TGI and VLDL+LDL)
Total serum cholesterol (SER.CHOL) was measured enzymatically using a commercial kit from Wako Fine Chemicals (Richmond, Va.); Cholesterol C11, Catalog No. 276-64909. HDL cholesterol (HDL-CHOL) was assayed using this same kit after precipitation of VLDL and LDL with Sigma Chemical Co. HDL Cholesterol reagent, Catalog No. 352-3 (dextran sulfate method). Total serum triglycerides (blanked) (TGI) were assayed enzymatically with Sigma Chemical Co. GPO-Trinder, Catalog No. 337-B. VLDL and LDL (VLDL+LDL) cholesterol concentrations were calculated as the difference between total and HDL cholesterol.

Hepatic Cholesterol [3] = test: Hepatic cholesterol concentration, cholesterol-fed hamsters; format: in vivo, hamster; settings: 0.2% Cpd. No. 25, mean (SEM)
Protocol: (§1) Measurement of Hepatic Cholesterol Concentration (Hepatic CHOL)
(§2) Liver tissue was weighed and homogenized in chloroform:methanol (2:1). After homogenization and centrifugation the supernatant was separated and dried under nitrogen. The residue was dissolved in isopropanol and the cholesterol content was measured enzymatically, using a combination of cholesterol oxidase and peroxidase, as described by Allain, C. A., et al. (1974) Clin. Chem. 20, 470.

[4] = system: Hepatic HMG CoA-Reductase; test: Hepatic HMG CoA-reductase activity, cholesterol-fed hamsters; format: in vivo, hamster; settings: 0.2% Cpd. No. 25, mean (SEM)
Protocol: (§3) Measurement of Hepatic HMG CoA-Reductase Activity (HMG COA)
(§4) Hepatic microsomes were prepared by homogenizing liver samples in a phosphate/sucrose buffer, followed by centrifugal separation. The final pelleted material was resuspended in buffer and an aliquot was assayed for HMG CoA reductase activity by incubating for 60 minutes at 37° C. in the presence of ^14C-HMG-CoA (Dupont-NEN). The reaction was stopped by adding 6N HCl followed by centrifugation. An aliquot of the supernatant was separated, by thin-layer chromatography, and the spot corresponding to the enzyme product was scraped off the plate, extracted and radioactivity was determined by scintillation counting. (Reference: Akerlund, J. and Bjorkhem, I. (1990) J. Lipid Res. 31, 2159).

[5] = system: Hepatic Cholesterol 7-α-Hydroxylase; test: Hepatic cholesterol 7-α-hydroxylase activity, cholesterol-fed hamsters; format: in vivo, hamster; settings: 0.2% Cpd. No. 25, mean (SEM)
Protocol: (§5) Measurement of Hepatic Cholesterol 7-α-Hydroxylase Activity (7a-OHase)
(§6) Hepatic microsomes were prepared by homogenizing liver samples in a phosphate/sucrose buffer, followed by centrifugal separation. The final pelleted material was resuspended in buffer and an aliquot was assayed for cholesterol 7-α-hydroxylase activity by incubating for 5 minutes at 37° C. in the presence of NADPH. Following extraction into petroleum ether, the organic solvent was evaporated and the residue was dissolved in acetonitrile/methanol. The enzymatic product was separated by injecting an aliquot of the extract onto a C18 reversed phase HPLC column and quantitating the eluted material using UV detection at 240 nm. (Reference: Horton, J. D., et al. (1994) J. Clin. Invest. 93, 2084).

Fecal Bile Acid [6] = test: Fecal bile acid concentration (FBA), cholesterol-fed hamsters; format: in vivo, hamster; settings: 0.2% Cpd. No. 25, mean (SEM)
Protocol: (§7) Measurement of Fecal Bile Acid Concentration (FBA)
(§8) Total fecal output from individually housed hamsters was collected for 24 or 48 hours, dried under a stream of nitrogen, pulverized and weighed. Approximately 0.1 gram was weighed out and extracted into an organic solvent (butanol/water). Following separation and drying, the residue was dissolved in methanol and the amount of bile acid present was measured enzymatically using the 3α-hydroxysteroid steroid dehydrogenase reaction with bile acids to reduce NAD. (Reference: Mashige, F., et al. (1981) Clin. Chem. 27, 1352).

Hepatic Cholesterol [7] = test: Hepatic cholesterol concentration, rat Alzet minipump model; format: in vivo; settings: 20 MPL/DAY, mean (SEM)
Protocol: as §1, §2

[8] = system: Hepatic HMG CoA-Reductase; test: Hepatic HMG CoA-reductase activity, rat Alzet minipump model; format: in vivo; settings: 20 MPL/DAY, mean (SEM)
Protocol: as §3, §4

[9] = system: Hepatic Cholesterol 7-α-Hydroxylase; test: Hepatic cholesterol 7-α-hydroxylase activity, rat Alzet minipump model; format: in vivo; settings: 20 MPL/DAY, mean (SEM)
Protocol: as §5, §6

Fecal Bile Acid [10] = test: Fecal bile acid concentration (FBA), rat Alzet minipump model; format: in vivo; settings: 20 MPL/DAY, mean (SEM)
Protocol: as §7, §8

For CCCC[C@]1(CC)CS(=O)(=O)c2cc(OC)ccc2[C@@H](c2ccccc2)[C@H]1O [Example 25, (3α,4β,5β) 3-Butyl-3-ethyl-4-hydroxy-8-methoxy-5-phenyl-2,3,4,5-tetrahydrobenzothiepine-1,1-dioxide], the inhibition at 10 µM (H14 cells) was 4%, the IC50 [1] was 800 nM and the “LIVER WEIGHT (G)” value [2] was 5.8 (0.2) G. The “WEIGHT (G) day 1” value [2] was 117 (5) G, the “WEIGHT (G) day 14” value [2] was 132 (4) G and the “HDL-CHOL (mg %)” value (Serum Cholesterol) was 76 (1) *A, B mg %. The “SER.CHOL (mg %)” value (Serum Cholesterol) was 126 (2) mg %, the “TGI (mg %)” value (Serum Cholesterol) was 175 (11) mg % and the “VLDL + LDL” value (Serum Cholesterol; difference total minus HDL cholesterol) was 50 (3). For the same molecule, the “HEPATIC CHOL (mg/g)” value (Hepatic Cholesterol [3]) was 1.9 (0.1) mg/g, the “HMG COA (pm/mg/min.)” value [4] was 312.9 (37.5) pm/mg/min and the “7a-OHase (pm/mg/min.)” value [5] was 291.0 (6.0) *A pm/mg/min. The “FBA (mM/24 H/100 g)” value (Fecal Bile Acid [6]) was 11.9 (0.5) mM/24 H/100 g, the “HEPATIC CHOL (mg/g)” value (Hepatic Cholesterol [7]) was 2.0 (0.03) mg/g and the “HMG COA pm/mg/min” value [8] was 318.0 (40.7) *A, B pm/mg/min. For the same molecule, the “7a-OHase (pm/mg/min)” value [9] was 535.2 (35.7) *A, B pm/mg/min and the “FBA (mM/24 H/100 g)” value (Fecal Bile Acid [10]) was 39.1 (4.5) *A, B mM/24 H/100 g.

Reference: patent publication US6784201B2, “Benzothiepines having activity as inhibitors of ileal bile acid transport and taurocholate uptake” (G.D. Searle & Company, priority 1994, dated 2004)
